Columns and labels:
Assay type in all cases: cell-based
[1] = tested on: TMD-8 cells; assay: BTK (wt) cell proliferation, TMD-8 (CellTiter-Glo, 72 h); details: Homo sapiens, TMD8, 72 h, TMD-8 cells, 72 h, CellTiter-Glo; read-out: BTK WT TMD-8 GI50;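 also: viable cells quantified by ATP-based luminescence, proliferation expressed as percent of DMSO control after subtracting a time-zero baseline plate read at dosing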
[2] = tested on: WT EGFR cell line A-431; assay: Cell proliferation, WT EGFR A431 (CellTiter-Glo, 72 h); details: Homo sapiens, A-431, 72 h, A431, 72 h proliferation; read-out: EGFR WT A431 GI50;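 also: proliferation from a luminescent ATP viability signal, expressed as 100 × (treated minus time-zero plate) over (DMSO control minus time-zero plate), cells grown with 10% FBS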
[3] = target: T1, human Her2 exon 20 insertion mutation YVMA (Homo sapiens, UniProt P04626, INS775YVMA); assay: Her2 Exon 20 YVMA insertion cellular phosphorylation inhibition (MSD p-Her2 Y1248/total Her2); details: Her2 YVMAins cells, 4 h compound;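 also: lentivirally transduced NIH-3T3 cells in 1% FBS medium, electrochemiluminescent MSD read-out, graded compound concentrations at 37 °C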
T1 construct: expressed in transfected cells; host or cells: NIH-3T3, lentiviral transduction, puromycin selection
T1 sequence (P04626 with tags, fused parts or gaps INS775YVMA): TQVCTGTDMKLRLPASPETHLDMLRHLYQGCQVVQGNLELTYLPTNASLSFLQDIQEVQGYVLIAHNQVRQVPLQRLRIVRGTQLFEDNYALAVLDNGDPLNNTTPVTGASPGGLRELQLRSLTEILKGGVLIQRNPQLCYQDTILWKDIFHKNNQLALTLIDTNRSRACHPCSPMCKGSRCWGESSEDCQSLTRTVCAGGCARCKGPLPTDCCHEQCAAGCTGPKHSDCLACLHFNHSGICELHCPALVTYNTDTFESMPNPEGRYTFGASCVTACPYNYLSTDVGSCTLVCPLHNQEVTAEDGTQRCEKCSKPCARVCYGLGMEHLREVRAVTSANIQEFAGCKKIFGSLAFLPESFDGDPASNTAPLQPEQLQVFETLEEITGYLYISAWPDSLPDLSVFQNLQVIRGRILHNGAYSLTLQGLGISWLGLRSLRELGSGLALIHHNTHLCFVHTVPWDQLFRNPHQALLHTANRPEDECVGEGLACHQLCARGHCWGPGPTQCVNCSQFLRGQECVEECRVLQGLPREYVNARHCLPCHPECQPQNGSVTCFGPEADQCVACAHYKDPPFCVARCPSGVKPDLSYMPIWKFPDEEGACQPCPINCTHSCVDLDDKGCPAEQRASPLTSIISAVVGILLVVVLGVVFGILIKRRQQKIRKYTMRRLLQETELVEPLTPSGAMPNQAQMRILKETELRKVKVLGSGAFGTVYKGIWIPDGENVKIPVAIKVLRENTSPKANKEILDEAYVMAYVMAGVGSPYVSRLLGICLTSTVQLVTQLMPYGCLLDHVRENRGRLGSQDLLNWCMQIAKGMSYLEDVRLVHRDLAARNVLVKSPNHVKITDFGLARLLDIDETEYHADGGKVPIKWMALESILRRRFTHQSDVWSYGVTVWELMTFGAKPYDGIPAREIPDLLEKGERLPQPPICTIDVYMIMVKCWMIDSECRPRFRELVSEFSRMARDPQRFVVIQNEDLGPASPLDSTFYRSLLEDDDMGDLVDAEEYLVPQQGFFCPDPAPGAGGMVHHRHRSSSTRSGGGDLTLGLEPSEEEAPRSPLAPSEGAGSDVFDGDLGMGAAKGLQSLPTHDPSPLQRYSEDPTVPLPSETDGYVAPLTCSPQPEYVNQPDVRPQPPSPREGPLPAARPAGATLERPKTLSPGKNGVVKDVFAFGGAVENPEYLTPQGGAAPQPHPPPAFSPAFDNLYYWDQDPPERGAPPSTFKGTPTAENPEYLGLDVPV

[4] = tested on: Ri-1 cells; assay: BTK (wt) cell proliferation, Ri-1 (CellTiter-Glo, 72 h); details: Ri-1, 72 h, Ri-1 cells, 72 h, CellTiter-Glo; read-out: BTK WT Ri-1 GI50;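 also: viable cells quantified as cellular ATP luminescence, proliferation normalized to a time-zero plate and the DMSO control, compounds tested across a dilution series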
[5] = tested on: Ba/F3 EGFR ASV ins cells; assay: Cell proliferation, Ba/F3 EGFR ASV ins (CellTiter-Glo, 72 h); details: Ba/F3 EGFR, 72 h, Ba/F3 EGFR ASV ins, 72 h proliferation; read-out: EGFR Exon20 ASV insertion GI50;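 also: IL3-independent Ba/F3 cells transduced with EGFR V769_D770insASV, cellular ATP luminescence after compound exposure, growth relative to DMSO control with the day-0 baseline reading subtracted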
[6] = target: T2, human EGFR exon 20 H773_V774insNPH (Homo sapiens, UniProt P00533, INS773NPH); assay: EGFR Exon20 NPH insertion cellular phosphorylation inhibition (MSD pEGFR Y1068/total EGFR); details: Ba/F3 EGFR NPH ins cells, 4 h compound, p-EGFR(Y1068)/total EGFR;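 also: IL3-independent Ba/F3 cells with constitutively phosphorylated EGFR, compound exposure at 37 °C under 5% CO2, electrochemiluminescent MSD measurement of the p-EGFR to total EGFR ratio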
T2 construct: host or cells: Ba/F3
T2 sequence (P00533 with tags, fused parts or gaps INS773NPH): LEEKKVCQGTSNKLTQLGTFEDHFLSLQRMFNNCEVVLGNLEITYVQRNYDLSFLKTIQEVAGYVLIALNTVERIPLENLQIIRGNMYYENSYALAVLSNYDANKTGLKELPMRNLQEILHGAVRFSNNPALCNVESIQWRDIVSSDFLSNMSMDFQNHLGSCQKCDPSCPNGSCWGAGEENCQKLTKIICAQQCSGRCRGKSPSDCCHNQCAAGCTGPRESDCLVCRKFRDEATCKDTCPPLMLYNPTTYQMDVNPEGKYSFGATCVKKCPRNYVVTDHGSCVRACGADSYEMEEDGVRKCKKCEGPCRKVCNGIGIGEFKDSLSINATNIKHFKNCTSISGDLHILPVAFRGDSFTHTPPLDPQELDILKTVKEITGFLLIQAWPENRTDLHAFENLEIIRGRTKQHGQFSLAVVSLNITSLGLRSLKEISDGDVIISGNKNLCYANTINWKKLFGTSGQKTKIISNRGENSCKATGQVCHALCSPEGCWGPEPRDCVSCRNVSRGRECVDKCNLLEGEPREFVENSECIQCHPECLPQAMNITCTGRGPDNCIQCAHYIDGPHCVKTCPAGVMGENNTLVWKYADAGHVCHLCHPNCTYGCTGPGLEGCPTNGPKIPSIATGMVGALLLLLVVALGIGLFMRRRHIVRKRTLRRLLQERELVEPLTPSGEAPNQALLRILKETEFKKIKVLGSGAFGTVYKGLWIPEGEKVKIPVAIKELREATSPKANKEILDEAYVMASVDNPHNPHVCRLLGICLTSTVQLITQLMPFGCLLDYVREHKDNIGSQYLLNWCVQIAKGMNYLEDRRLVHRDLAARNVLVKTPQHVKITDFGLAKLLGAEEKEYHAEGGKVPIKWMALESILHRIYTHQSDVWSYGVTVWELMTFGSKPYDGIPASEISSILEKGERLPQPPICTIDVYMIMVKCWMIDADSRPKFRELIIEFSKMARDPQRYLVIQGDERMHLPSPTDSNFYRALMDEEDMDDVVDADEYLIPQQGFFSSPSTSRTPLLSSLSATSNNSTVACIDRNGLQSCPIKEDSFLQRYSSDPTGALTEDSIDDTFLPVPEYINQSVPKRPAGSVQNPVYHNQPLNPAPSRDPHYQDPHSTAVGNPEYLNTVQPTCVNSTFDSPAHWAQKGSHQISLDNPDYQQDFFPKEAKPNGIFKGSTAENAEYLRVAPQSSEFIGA

[7] = tested on: DB cells; assay: BTK (wt) cell proliferation, DB (CellTiter-Glo, 72 h); details: Homo sapiens, DB, DB cells, CellTiter-Glo, read-out: Non-BCR activated DB GI50;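 also: DB cells in 384-well plates given a dilution series of compound, viable cells read by ATP luminescence, growth expressed versus DMSO control after subtracting a time-zero plate reading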
[8] = target: T3, human EGFR exon 20 V769_D770insASV (Homo sapiens, UniProt P00533, INS769ASV); assay: EGFR Exon20 ASV insertion cellular phosphorylation inhibition (MSD pEGFR Y1068/total EGFR); details: Ba/F3 EGFR ASV ins cells, 4 h compound, p-EGFR(Y1068)/total EGFR;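 also: electrochemiluminescent readout on an MSD SECTOR Imager, IL3-independent transduced cells in medium with 1% FBS, compound concentration series at 37 °C and 5% CO2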
T3 construct: expressed in transfected cells; host or cells: Ba/F3 (DSMZ ACC-300), lentiviral transduction, puromycin selection, IL3 depletion
T3 sequence (P00533 with tags, fused parts or gaps INS769ASV): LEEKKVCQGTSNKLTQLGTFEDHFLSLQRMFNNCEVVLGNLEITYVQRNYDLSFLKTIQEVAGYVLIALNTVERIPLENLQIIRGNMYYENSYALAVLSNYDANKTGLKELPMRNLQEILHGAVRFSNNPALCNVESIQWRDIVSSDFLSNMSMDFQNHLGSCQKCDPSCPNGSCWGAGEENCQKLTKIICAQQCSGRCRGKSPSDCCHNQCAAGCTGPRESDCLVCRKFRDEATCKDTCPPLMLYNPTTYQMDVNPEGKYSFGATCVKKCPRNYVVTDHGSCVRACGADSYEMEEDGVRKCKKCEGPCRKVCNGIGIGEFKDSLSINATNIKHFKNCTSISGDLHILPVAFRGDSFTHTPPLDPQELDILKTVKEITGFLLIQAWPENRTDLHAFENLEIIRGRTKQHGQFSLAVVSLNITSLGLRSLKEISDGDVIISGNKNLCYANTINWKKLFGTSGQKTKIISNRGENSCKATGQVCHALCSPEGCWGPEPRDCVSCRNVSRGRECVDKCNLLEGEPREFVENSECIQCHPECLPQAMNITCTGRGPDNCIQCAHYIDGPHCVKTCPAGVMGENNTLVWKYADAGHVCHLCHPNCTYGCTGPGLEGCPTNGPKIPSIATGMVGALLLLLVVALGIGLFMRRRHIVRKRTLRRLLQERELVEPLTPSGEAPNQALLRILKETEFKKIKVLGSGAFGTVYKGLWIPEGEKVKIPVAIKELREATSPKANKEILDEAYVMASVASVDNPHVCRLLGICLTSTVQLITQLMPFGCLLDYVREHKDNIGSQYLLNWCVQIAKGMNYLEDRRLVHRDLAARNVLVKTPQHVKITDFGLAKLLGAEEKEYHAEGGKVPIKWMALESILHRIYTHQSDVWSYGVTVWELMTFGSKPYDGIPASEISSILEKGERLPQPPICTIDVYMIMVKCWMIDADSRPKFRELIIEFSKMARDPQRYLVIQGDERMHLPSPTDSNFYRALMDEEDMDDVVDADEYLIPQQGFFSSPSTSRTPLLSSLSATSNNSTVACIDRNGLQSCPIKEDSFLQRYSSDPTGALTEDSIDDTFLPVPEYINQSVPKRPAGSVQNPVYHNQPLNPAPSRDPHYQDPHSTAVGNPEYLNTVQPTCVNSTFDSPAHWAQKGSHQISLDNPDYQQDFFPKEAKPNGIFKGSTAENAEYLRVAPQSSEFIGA

[9] = target: T4, EGFR L858R&T790M (Homo sapiens, UniProt P00533, L858R/T790M); assay: EGFR L858R and T790M cellular phosphorylation inhibition in NCI-H1975 (MSD); details: NCI-H1975 cells, 4 h compound, p-EGFR(Y1068)/total EGFR; read-out: EGFR L858R and T790M mutation IC50;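 also: phosphorylated and total EGFR detected by electrochemiluminescence, cells exposed to compound in medium containing 1% FBS at 37 °C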
T4 construct: host or cells: NCI-H1975

[10] = tested on: Her2 exon 20 insertion YVMA transduced NIH-3T3 cell line; assay: Cell proliferation, Her2 YVMAins NIH-3T3 (CellTiter-Glo, 72 h); details: Mus musculus, NIH3T3, 72 h, Her2 YVMAins cells, 72 h proliferation; read-out: Her2 Exon 20 YVMA insertion GI50;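 also: viable cells quantified by ATP luminescence, growth over a day-zero baseline plate expressed as percent of DMSO control growth, compound dilution series in 10% FBS medium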
[11] = tested on: Ba/F3 EGFR NPH ins cells; assay: Cell proliferation, Ba/F3 EGFR NPH ins (CellTiter-Glo, 72 h); details: Ba/F3 EGFR, 72 h, Ba/F3 EGFR NPH ins, 72 h proliferation; read-out: EGFR Exon20 NPH insertion GI50;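 also: IL3-independent cells carrying constitutively phosphorylated EGFR, compound dilution series, viable cells quantified by ATP luminescence, growth relative to DMSO wells after subtracting pre-dosing (day 0) baseline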
[12] = target: T5, WT EGFR (Homo sapiens, UniProt P00533); assay: WT EGFR cellular phosphorylation inhibition in A-431 (hEGF stimulated, MSD); details: A431 cells, 4 h compound, then 100 ng/ml hEGF 10 min;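 also: electrochemiluminescence read-out of EGFR Tyr1068 phosphorylation expressed as ratio to total EGFR, cells kept in medium with 1% FBS, compounds tested as a concentration series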
T5 construct: host or cells: A-431
T5 sequence (P00533 25-1210): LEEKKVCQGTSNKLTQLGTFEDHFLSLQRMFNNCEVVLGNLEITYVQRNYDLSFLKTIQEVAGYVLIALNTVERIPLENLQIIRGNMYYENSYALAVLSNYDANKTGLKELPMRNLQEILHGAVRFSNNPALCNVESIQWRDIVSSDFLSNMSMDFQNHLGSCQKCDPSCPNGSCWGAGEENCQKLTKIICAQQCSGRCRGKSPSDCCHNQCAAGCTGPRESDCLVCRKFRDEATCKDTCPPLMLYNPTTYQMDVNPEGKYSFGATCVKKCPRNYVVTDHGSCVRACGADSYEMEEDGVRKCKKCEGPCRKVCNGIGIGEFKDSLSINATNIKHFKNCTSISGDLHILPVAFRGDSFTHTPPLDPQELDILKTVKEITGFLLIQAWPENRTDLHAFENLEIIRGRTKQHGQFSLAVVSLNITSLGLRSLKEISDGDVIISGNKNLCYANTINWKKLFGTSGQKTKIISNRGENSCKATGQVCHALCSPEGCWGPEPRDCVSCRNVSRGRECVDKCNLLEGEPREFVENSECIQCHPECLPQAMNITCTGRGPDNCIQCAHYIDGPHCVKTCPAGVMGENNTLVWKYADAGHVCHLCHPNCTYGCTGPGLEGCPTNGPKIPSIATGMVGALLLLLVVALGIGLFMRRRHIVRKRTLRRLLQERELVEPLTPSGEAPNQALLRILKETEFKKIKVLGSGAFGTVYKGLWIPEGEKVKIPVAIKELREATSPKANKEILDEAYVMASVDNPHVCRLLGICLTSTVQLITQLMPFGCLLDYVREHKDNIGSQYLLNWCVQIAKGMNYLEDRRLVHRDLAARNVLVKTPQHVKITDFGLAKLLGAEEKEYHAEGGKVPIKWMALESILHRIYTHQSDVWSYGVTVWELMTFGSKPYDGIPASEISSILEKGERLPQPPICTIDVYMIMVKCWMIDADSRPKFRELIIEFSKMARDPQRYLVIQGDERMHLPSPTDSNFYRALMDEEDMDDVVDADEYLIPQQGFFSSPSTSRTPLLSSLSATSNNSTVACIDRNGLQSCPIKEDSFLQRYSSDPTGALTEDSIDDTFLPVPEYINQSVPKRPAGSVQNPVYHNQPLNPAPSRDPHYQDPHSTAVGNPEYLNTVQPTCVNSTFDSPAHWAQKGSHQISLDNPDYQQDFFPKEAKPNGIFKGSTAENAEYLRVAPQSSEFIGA
Method: One day before the test, WT or mutant cells were seeded in 96 well plates at appropriate concentrations with corresponding growth media supplemented with 1% FBS, and incubated overnight. The next day, tested compounds at a series of concentrations were added into each individual well of the plates, and the plates were incubated for 4 h at 37° C. with 5% CO2.
The EGFR (Y1068) phosphorylation level (activity) of cells in each well were then measured with MSD kit named “MULTI-SPOT®96 4-Spot HB Prototype EGFR Triplex [sequence]: pEGFR(Tyr1068),pEGFR(Tyr1173), Total EGFR” according to the manufacturer’s instruction (MESO SCALE DISCOVERY, Cat# N45ZB-1). The assay is an electrochemiluminescent method for determining both phosphorylated and total EGFR of cells with an MSD SECTOR® Imager and the ratio of p-EGFR/total EGFR can be generated by the machine. The Her2 (Y1248) phosphorylation level (activity) of cells in each well were measured with MSD Kit named “Phospho-ErbB2 (Tyr1248) Assay Whole Cell Lysate Kit” according to the manufacturer’s instruction (MESO SCALE DISCOVERY, Cat# K151CLD-3). The assay is an electrochemiluminescent method (MESO SCALE DISCOVERY) for determining both phosphorylated and total Her2 of cells with an MSD SECTOR® Imager and then the ratio of p-Her2/total Her2 can be generated by the machine.

[13] = tested on: OCI-LY-10 cells; assay: BTK (wt) cell proliferation, OCI-LY-10 (CellTiter-Glo, 72 h); details: Homo sapiens, OCI-Ly10, 72 h, OCI-LY-10 cells, 72 h, CellTiter-Glo; read-out: BTK WT OCI-LY-10 GI50;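 also: viable cells quantified via cellular ATP luminescence, proliferation given as percent of DMSO control after subtracting a duplicate plate read at time of dosing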
[14] = tested on: NCI-H1975 EGFR L858R/T790M cells; assay: Cell proliferation, NCI-H1975 EGFR L858R/T790M (CellTiter-Glo, 72 h); details: Homo sapiens, NCI-H1975, 72 h, NCI-H1975, 72 h proliferation; read-out: EGFR L858R and T790M mutation GI50;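 also: viable cells quantified by luciferase-based ATP luminescence, proliferation expressed relative to DMSO-treated wells (100%) after subtracting a parallel plate read at the time of dosing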
Method: WT or mutant cells were seeded in 384 well plates at appropriate concentrations with corresponding growth media supplemented with 10% FBS, for each experiment, identical plates were prepared in duplicates, and the plates were incubated overnight. On the next day, one of each duplicated plates was dosed with tested compounds at a series of concentrations, and another one of the duplicated plate was analysied for G0 value. The dosed plates were incubate for another 72 h at 37° C. with 5% CO2 and the number of viable cells in each well of the G0 plates or the dosed plates were measured by CellTiter-Glo® Luminescent Cell Viability Assay (Promega). This assay is a luminescent method for determining the number viable cells through measurement of cellular ATP concentration by detection of luciferase activity. Detection reagents (15 µl) was dispensed into per well, and the plates were incubate for 30 min at room temperature. Then, the luminescence in each well was measured using the Envision plate reader (PerkinElmer). The percentage of proliferation was calculated based on the formula: %Proliferation= 100 × (G3 value of sample well-Go value)/(G3 value of DMSO control-Go value).

Compound | GI50 [1] | GI50 [2] | IC50 [3] | GI50 [4] | GI50 [5] | IC50 [6] | GI50 [7] | IC50 [8] | IC50 [9] | GI50 [10] | GI50 [11] | IC50 [12] | GI50 [13] | GI50 [14]
C=CC(=O)Nc1cc(Nc2ncnc(Nc3cc(F)c(Cl)c(F)c3C(C)(C)O)n2)c(OC)cc1N(C)CCN(C)C [Compound 16, N-(5-(4-(4-chloro-3,5-difluoro-2-(2-hydroxypropan-2-yl)phenylamino)-1,3,5-triazin-2-ylamino)-2-((2-(dimethylamino)ethyl)(methyl)amino)-4-methoxyphenyl)acrylamide] | 118 nM | 52.6 nM | 16.5 nM | 334 nM | 114 nM | 36 nM | > 3000 nM | 35.1 nM | 0.9 nM | 73.4 nM | 81.3 nM | 47.6 nM | 250 nM | 33.4 nM
C=CC(=O)Nc1cc(Nc2ncnc(Nc3cc(F)c(F)cc3C(C)(C)O)n2)c(OC)cc1N1CC[C@@H]2CN(C)C[C@@H]21 [Compound 17, N-(5-(4-(4,5-difluoro-2-(2-hydroxypropan-2-yl)phenylamino)-1,3,5-triazin-2-ylamino)-4-methoxy-2-((3aR,6aR)-5-methylhexahydropyrrolo[3,4-b]pyrrol-1(2H)-yl)phenyl) acrylamide] | 53.7 nM | 13.2 nM | 6.1 nM | 28 nM | 19.6 nM | 13 nM | > 3000 nM | 7.8 nM | 0.3 nM | 37.7 nM | 25 nM | 13.5 nM | 41.5 nM | 3.7 nM
C=CC(=O)Nc1cc(Nc2ncnc(Nc3cc(F)c(F)cc3C(C)(C)O)n2)c(OC)cc1N(C)CCN1CCCC1 [Compound 18] | 81.7 nM | 42.8 nM | 22.1 nM | 446 nM | 91.3 nM | 61.1 nM | > 3000 nM | 42.4 nM | 1.1 nM | 136 nM | 93.6 nM | 58.9 nM | 276 nM | 10.9 nM
C=CC(=O)Nc1cc(Nc2ncnc(Nc3cc(F)c(F)cc3C(C)(C)O)n2)c(OC)cc1N1CC[C@@H]1CN(C)C [Compound 19, (R)-N-(5-(4-(4,5-difluoro-2-(2-hydroxypropan-2-yl)phenylamino)-1,3,5-triazin-2-ylamino)-2-(2-((dimethylamino)methyl)azetidin-1-yl)-4-methoxyphenyl)acrylamide] | 13 nM | 23.1 nM | 21.3 nM | 133 nM | 80.9 nM | 46.5 nM | > 3000 nM | 29.7 nM | 0.9 nM | 163 nM | 80 nM | 29.7 nM | 10.8 nM | 9.5 nM
C=CC(=O)Nc1cc(Nc2ncnc(Nc3cc(F)c(F)cc3C(C)(C)O)n2)c(OC)cc1N(C)C[C@H]1CCCN1C [Compound 20, (R)-N-(5-(4-(4,5-difluoro-2-(2-hydroxypropan-2-yl)phenylamino)-1,3,5-triazin-2-ylamino)-4-methoxy-2-(methyl((1-methylpyrrolidin-2-yl)methyl)amino)phenyl)acrylamide] | 103 nM | 16.5 nM | 11.3 nM | 56.2 nM | 30.8 nM | 25.3 nM | > 3000 nM | 9.4 nM | 0.5 nM | 68.1 nM | 51.5 nM | 27.2 nM | 99.8 nM | 7.7 nM
C=CC(=O)Nc1cc(Nc2ncnc(Nc3cc(F)c(F)cc3C(C)(C)O)n2)c(OC)cc1N1CCC[C@@H]1CN(C)C [Compound 21, (R)-N-(5-(4-(4,5-difluoro-2-(2-hydroxypropan-2-yl)phenylamino)-1,3,5-triazin-2-ylamino)-2-(2-((dimethylamino)methyl)pyrrolidin-1-yl)-4-methoxyphenyl)acrylamide] | 19.2 nM | 4.1 nM | 1.7 nM | 11.2 nM | 8.2 nM | 6.8 nM | > 3000 nM | 2.3 nM | 0.2 nM | 13.2 nM | 11.2 nM | 5.1 nM | 9.7 nM | 2.5 nM

Reference: patent publication US20230293535A1, “ERBB/BTK INHIBITORS” (Dizal (Jiangsu) Pharmaceutical Co., Ltd., priority 2018, published 2023)
